Data taken from patent US20250367160A1, “USE OF GUAIJAVERIN IN PREPARATION OF EYE PROTECTION PRODUCT” (Innovation Center of Yangtze River Delta, ZJU, priority 2024, published 2025).

Experiments:
Type in all cases: in vivo, BALB/c mice
mouse retina = experiment: Mouse retinal optical damage model, H&E histopathological evaluation of retina; settings: for morphology and thickness of the outer nuclear layer retina and inner nuclear layer retina (H&E): gavage once a day 10 days, vs model group, FIG. 5
Method: (§1) A self-made light box with a length of 108 cm, a width of 50 cm, and a height of 72 cm was used, and the light intensity was measured by a light meter to be 8,500-10,000 Lux. After eye examination, 60 mice with normal eyeballs were selected and randomly divided into a control group, a model group, a lutein group (100 mg/kg), a guaijaverin low-dose group (50 mg/kg), and a guaijaverin high-dose group (100 mg/kg), with 12 mice in each group. Lutein and guaijaverin were suspended in 5% sodium carboxymethylcellulose (CMC-Na) solution and administered by gavage once a day. The mice in the control and model groups were administered by gavage with an equal volume of 5% CMC-Na for 10 consecutive days. 10 days later, the mice in the model group, lutein group, guaijaverin low-dose group, and guaijaverin high-dose group were kept in the dark for 36 h, atropine eye gel was applied to both eyes of the mice to induce pupil dilation, and the mice were placed in the self-made lighting device of 8,000-10,000 Lux (the control group was raised in a normal environment) and given continuous light for 24 h. After the light exposure, the mice in each group had their eyeballs removed to draw blood and eyeball tissue collected for subsequent experimental tests.
(§2) Eyeball tissues of 6 mice were collected from each group for Hematoxylin-eosin staining (H&E) and TUNEL fluorescence staining of apoptotic cells, and the pathological changes of mouse eyeball tissues were observed using an optical microscope (completed by Wuhan Servicebio Biotechnology Co., Ltd.).
a) Dewaxing of paraffin sections to water: the sections were sequentially placed in environmental-friendly dewaxing solution I for 20 min, environmental-friendly dewaxing solution II for 20 min, anhydrous ethanol I for 5 min, anhydrous ethanol II for 5 min, and 75% alcohol for 5 min, and then wash with tap water.
b) Pretreatment: the sections were placed into H&E high-definition constant staining pretreatment solution for 1 min. […]
f) The sections were examined under a microscope and the images were collected and analyzed.

[1] = system: mouse retinal apoptotic cells; experiment: Mouse retinal optical damage model, TUNEL staining of retinal apoptotic cells; settings: for retinal cell apoptosis caused by light (TUNEL): gavage once a day 10 days, vs model group, FIG. 6
Method: as §1, §2
a) Dewaxing the paraffin sections to water: the sections were sequentially placed into environmental-friendly dewaxing solution I for 10 min, environmental-friendly dewaxing solution II for 10 min, environmental-friendly dewaxing solution III for 10 min, anhydrous ethanol I for 5 min, anhydrous ethanol II for 5 min, anhydrous ethanol III for 5 min and washed with distilled water.
b) Proteinase K repair: after the sections were slightly dried, a tissue pen was used to draw a circle around the tissue (to prevent the liquid from flowing away), a proteinase K working solution was added in the circle to cover the tissue, and incubated in a 37° C. incubator for 20 min. The slides were placed in PBS (PH=7.4) and washed 3 times on a decolorizing shaker, each time for 5 min. (Preparation method of proteinase K working solution, stock solution:PBS=1:9). […]
g) Sealing: the slides were placed in PBS (PH7.4) and washed on a decolorizing shaker for 3 times, 5 min each time. The sections were slightly spin-dried and mounted with anti-fluorescence fading mounting medium. […]

IL-6 = experiment: Mouse retinal optical damage model, plasma IL-6 level; settings: gavage once a day 10 days, vs model group, FIG. 8
Method: as §1, with “After the light exposure, the mice in each group had their eyeballs removed to draw blood and eyeball tissue collected for subsequent experimental tests.” left out
The mouse blood was collected in an anticoagulant tube and centrifuged at 3,000 rpm for 10 min at 4° C. to collect the upper plasma. The IL-6 content was determined according to the method provided by the kit manufacturer.

[2] = system: Heme Oxygenase-1 (HO-1 protein); experiment: Mouse retinal optical damage model, Western blot of HO-1 protein in retina; settings: high-dose 100 mg/kg, gavage once a day 10 days, vs model group, FIG. 9
Method: A self-made light box with a length of 108 cm, a width of 50 cm, and a height of 72 cm was used, and the light intensity was measured by a light meter to be 8,500-10,000 Lux. After eye examination, 60 mice with normal eyeballs were selected and randomly divided into a control group, a model group, a lutein group (100 mg/kg), a guaijaverin low-dose group (50 mg/kg), and a guaijaverin high-dose group (100 mg/kg), with 12 mice in each group. Lutein and guaijaverin were suspended in 5% sodium carboxymethylcellulose (CMC-Na) solution and administered by gavage once a day. The mice in the control and model groups were administered by gavage with an equal volume of 5% CMC-Na for 10 consecutive days. […]
The mouse retina was taken, and 100-150 μL of RIPA lysis buffer was added for every 10 mg of tissue. After sufficient lysis, the protein content was detected using a BCA protein quantification kit. […] The bands were analyzed by the supporting software of the red laser two-color imaging system, with GAPDH protein expression as an internal reference.

[3] = high-dose 100 mg/kg vs lutein 100 mg/kg

O=c1c(O[C@@H]2OC[C@H](O)[C@H](O)[C@H]2O)c(-c2ccc(O)c(O)c2)oc2cc(O)cc(O)c12 [Guaijaverin, guaijaverin]
anti-optical damage eye protection efficacy compared with lutein (H&E) (mouse retina; [3]): better anti-optical damage eye protection efficacy than lutein
morphology and thickness of the outer nuclear layer retina and inner nuclear layer retina (H&E) (mouse retina; high-dose 100 mg/kg): increase the thickness of the outer nuclear layer retina and inner nuclear layer retina
morphology and thickness of the outer nuclear layer retina and inner nuclear layer retina (H&E) (mouse retina; low-dose 50 mg/kg): increase the thickness of the outer nuclear layer retina and inner nuclear layer retina
protective effect on retinal cell apoptosis compared with lutein (TUNEL) [1, 3]: better protective effect than lutein
retinal cell apoptosis caused by light (TUNEL) ([1]; high-dose 100 mg/kg): effectively improve retinal cell apoptosis caused by light
protective effect on retinal cell apoptosis compared with lutein (TUNEL) ([1]; low-dose 50 mg/kg vs lutein 100 mg/kg): comparable to that of the positive control lutein
retinal cell apoptosis caused by light (TUNEL) ([1]; low-dose 50 mg/kg): effectively improve retinal cell apoptosis caused by light
plasma level of IL-6 (IL-6; high-dose 100 mg/kg): significantly reduce the level of IL-6
plasma level of IL-6 (IL-6; low-dose 50 mg/kg): significantly reduce the level of IL-6
expression of HO-1 protein in the retinal tissue [2]: significantly reduced the expression of HO-1 protein
